Tests used:
Format in all cases: functional
[1] = system: OVCAR-8; assay: Cytotoxicity against human OVCAR8 cells assessed as growth inhibition after 48 hrs by sulforhodamine B assay; details: OVCAR-8, 48 h
[2] = system: LOX IMVI; assay: Cytotoxicity against human LOXIMVI cells assessed as cell growth at 10 uM after 48 hrs by sulforhodamine B assay relative to control; details: read-out: Activity
[3] = system: CAKI-1; assay: Cytotoxicity against human Caki1 cells assessed as cell growth at 1 uM after 48 hrs by sulforhodamine B assay relative to control; details: CAKI-1, 48 h, read-out: Activity
[4] = system: CAKI-1; assay: Cytotoxicity against human Caki1 cells assessed as cell growth at 10 uM after 48 hrs by sulforhodamine B assay relative to control; details: CAKI-1, 48 h, read-out: Activity
[5] = system: SK-MEL-2; assay: Cytotoxicity against human SK-MEL-2 cells assessed as cell growth at 10 uM after 48 hrs by sulforhodamine B assay relative to control; details: SK-MEL-2, 48 h, read-out: Activity
[6] = system: LOX IMVI; assay: Cytotoxicity against human LOXIMVI cells assessed as cell growth at 1 uM after 48 hrs by sulforhodamine B assay relative to control; details: read-out: Activity
[7] = system: LOX IMVI; assay: Cytotoxicity against human LOXIMVI cells assessed as cell growth at 100 uM after 48 hrs by sulforhodamine B assay relative to control; details: read-out: Activity
[8] = system: SK-MEL-2; assay: Cytotoxicity against human SK-MEL-2 cells assessed as cell growth at 100 uM after 48 hrs by sulforhodamine B assay relative to control; details: SK-MEL-2, 48 h, read-out: Activity
[9] = system: NCI-H322M; assay: Cytotoxicity against human NCI-H322M cells assessed as cell growth at 10 uM after 48 hrs by sulforhodamine B assay relative to control; details: read-out: Activity
[10] = system: SK-MEL-2; assay: Cytotoxicity against human SK-MEL-2 cells assessed as cell growth at 1 uM after 48 hrs by sulforhodamine B assay relative to control; details: SK-MEL-2, 48 h, read-out: Activity
[11] = system: CAKI-1; assay: Cytotoxicity against human Caki1 cells assessed as cell growth at 100 uM after 48 hrs by sulforhodamine B assay relative to control; details: CAKI-1, 48 h, read-out: Activity
[12] = system: CAKI-1; assay: Cytotoxicity against human Caki1 cells assessed as growth inhibition after 48 hrs by sulforhodamine B assay; details: CAKI-1, 48 h
[13] = system: CAKI-1; assay: Cytotoxicity against human Caki1 cells assessed as cell growth at 0.01 uM after 48 hrs by sulforhodamine B assay relative to control; details: CAKI-1, 48 h, read-out: Activity
[14] = system: LOX IMVI; assay: Cytotoxicity against human LOXIMVI cells assessed as cell growth at 0.01 uM after 48 hrs by sulforhodamine B assay relative to control; details: read-out: Activity
[15] = system: CAKI-1; assay: Cytotoxicity against human Caki1 cells assessed as cell growth at 0.1 uM after 48 hrs by sulforhodamine B assay relative to control; details: CAKI-1, 48 h, read-out: Activity
[16] = system: SK-MEL-2; assay: Cytotoxicity against human SK-MEL-2 cells assessed as cell growth at 0.01 uM after 48 hrs by sulforhodamine B assay relative to control; details: SK-MEL-2, 48 h, read-out: Activity
[17] = system: LOX IMVI; assay: Cytotoxicity against human LOXIMVI cells assessed as cell growth at 0.1 uM after 48 hrs by sulforhodamine B assay relative to control; details: read-out: Activity
[18] = system: SK-MEL-2; assay: Cytotoxicity against human SK-MEL-2 cells assessed as cell growth at 0.1 uM after 48 hrs by sulforhodamine B assay relative to control; details: SK-MEL-2, 48 h, read-out: Activity
[19] = system: SNB-75; assay: Cytotoxicity against human SNB75 cells assessed as cell growth at 1 uM after 48 hrs by sulforhodamine B assay relative to control; details: SNB-75, 48 h, read-out: Activity
[20] = system: SF-295; assay: Cytotoxicity against human SF295 cells assessed as cell growth at 10 uM after 48 hrs by sulforhodamine B assay relative to control; details: SF-295, 48 h, read-out: Activity
[21] = system: SNB-75; assay: Cytotoxicity against human SNB75 cells assessed as cell growth at 10 uM after 48 hrs by sulforhodamine B assay relative to control; details: SNB-75, 48 h, read-out: Activity
[22] = system: SF-295; assay: Cytotoxicity against human SF295 cells assessed as cell growth at 100 uM after 48 hrs by sulforhodamine B assay relative to control; details: SF-295, 48 h, read-out: Activity
[23] = system: SF-295; assay: Cytotoxicity against human SF295 cells assessed as cell growth at 0.1 uM after 48 hrs by sulforhodamine B assay relative to control; details: SF-295, 48 h, read-out: Activity
[24] = system: SF-295; assay: Cytotoxicity against human SF295 cells assessed as growth inhibition after 48 hrs by sulforhodamine B assay; details: SF-295, 48 h
[25] = system: SNB-75; assay: Cytotoxicity against human SNB75 cells assessed as growth inhibition after 48 hrs by sulforhodamine B assay; details: SNB-75, 48 h
[26] = system: SNB-75; assay: Cytotoxicity against human SNB75 cells assessed as cell growth at 100 uM after 48 hrs by sulforhodamine B assay relative to control; details: SNB-75, 48 h, read-out: Activity
[27] = system: SF-295; assay: Cytotoxicity against human SF295 cells assessed as cell growth at 1 uM after 48 hrs by sulforhodamine B assay relative to control; details: SF-295, 48 h, read-out: Activity
[28] = system: SNB-75; assay: Cytotoxicity against human SNB75 cells assessed as cell growth at 0.1 uM after 48 hrs by sulforhodamine B assay relative to control; details: SNB-75, 48 h, read-out: Activity
[29] = system: SF-295; assay: Cytotoxicity against human SF295 cells assessed as cell growth at 0.01 uM after 48 hrs by sulforhodamine B assay relative to control; details: SF-295, 48 h, read-out: Activity
[30] = system: SNB-75; assay: Cytotoxicity against human SNB75 cells assessed as cell growth at 0.01 uM after 48 hrs by sulforhodamine B assay relative to control; details: SNB-75, 48 h, read-out: Activity
[31] = system: HOP-92; assay: Cytotoxicity against human HOP92 cells assessed as cell growth at 0.1 uM after 48 hrs by sulforhodamine B assay relative to control; details: HOP-92, 48 h, read-out: Activity
[32] = system: HOP-92; assay: Cytotoxicity against human HOP92 cells assessed as growth inhibition after 48 hrs by sulforhodamine B assay; details: HOP-92, 48 h
[33] = system: HOP-92; assay: Cytotoxicity against human HOP92 cells assessed as cell growth at 0.01 uM after 48 hrs by sulforhodamine B assay relative to control; details: HOP-92, 48 h, read-out: Activity
[34] = system: HOP-92; assay: Cytotoxicity against human HOP92 cells assessed as cell growth at 1 uM after 48 hrs by sulforhodamine B assay relative to control; details: HOP-92, 48 h, read-out: Activity
[35] = system: HOP-92; assay: Cytotoxicity against human HOP92 cells assessed as cell growth at 100 uM after 48 hrs by sulforhodamine B assay relative to control; details: HOP-92, 48 h, read-out: Activity
[36] = system: HOP-92; assay: Cytotoxicity against human HOP92 cells assessed as cell growth at 10 uM after 48 hrs by sulforhodamine B assay relative to control; details: HOP-92, 48 h, read-out: Activity

Question: How did the LC50 [1] turn out when `COc1cc(-c2cc(/C=C/C(=O)c3ccc4c(c3)OCO4)[nH]n2)cc(OC)c1OC` was run?
Answer: > 100 µM

Question: What about the TGI [1] of the same compound?
Answer: 11.1 µM

Question: And the growth at 10 µM [2]?
Answer: -67%

Question: What about the growth at 1 µM [3] of the same compound?
Answer: 92%

Question: And the growth at 10 µM [4]?
Answer: 35%

Question: And the growth at 10 µM [5]?
Answer: 51%

Question: And the growth at 1 µM [6]?
Answer: 91%

Question: And the growth at 100 µM [7]?
Answer: -54%

Question: And the growth at 100 µM [8]?
Answer: -60%

Question: What about the growth at 10 µM [9] of the same compound?
Answer: 3%

Question: And the growth at 1 µM [10]?
Answer: 101%

Question: What about the growth at 100 µM [11] of the same compound?
Answer: 27%

Question: What about the LC50 [12] of the same compound?
Answer: > 100 µM

Question: What about the TGI [12] of the same compound?
Answer: > 100 µM

Question: What about the growth at 0.01 µM [13] of the same compound?
Answer: 96%

Question: And the growth at 0.01 µM [14]?
Answer: 93%

Question: And the growth at 0.1 µM [15]?
Answer: 96%

Question: What about the growth at 0.01 µM [16] of the same compound?
Answer: 90%

Question: And the growth at 0.1 µM [17]?
Answer: 93%

Question: What about the growth at 0.1 µM [18] of the same compound?
Answer: 93%

Question: What does the source list for `COc1ccc(-c2cc(/C=C/C(=O)c3ccc(N)cc3)[nH]n2)cc1`?
Answer: growth at 1 µM [19]: 74%; GI50 [1]: 2.44 µM; LC50 [1]: > 100 µM; TGI [1]: 15.4 µM; growth at 1 µM [3]: 56%; growth at 10 µM [4]: 3%; growth at 10 µM [20]: 10%; growth at 10 µM [21]: 6%; growth at 10 µM [9]: -2%; growth at 100 µM [11]: -63%; growth at 100 µM [22]: -76%; GI50 [12]: 1.32 µM; LC50 [12]: 64.3 µM; TGI [12]: 11.1 µM; growth at 0.1 µM [23]: 95%; growth at 0.01 µM [13]: 95%; growth at 0.1 µM [15]: 97%; GI50 [24]: 3.09 µM; LC50 [24]: 49.6 µM; TGI [24]: 13.1 µM; GI50 [25]: 2.25 µM; LC50 (concentration killing 50% of cells) [25]: 35.3 µM; TGI [25]: 11.4 µM; growth at 100 µM [26]: -96%; growth at 1 µM [27]: 88%; growth at 0.1 µM [28]: 88%; growth at 0.01 µM [29]: 93%; growth at 0.01 µM [30]: 85%

Question: For `COc1cc(-c2cc(/C=C/C(=O)c3ccc(Cl)c(Cl)c3)[nH]n2)cc(OC)c1OC`, which LC50 [1] is on record?
Answer: > 100 µM

Question: What about the TGI [1] of the same compound?
Answer: 34 µM

Question: And the growth at 10 µM [2]?
Answer: 16%

Question: What about the growth at 1 µM [3] of the same compound?
Answer: 87%

Question: And the growth at 10 µM [4]?
Answer: 62%

Question: And the growth at 0.1 µM [31]?
Answer: 90%

Question: And the growth at 10 µM [5]?
Answer: 68%

Question: What about the growth at 1 µM [6] of the same compound?
Answer: 88%

Question: And the TGI [32]?
Answer: 8.25 µM

Question: What about the CC50 ([32]; read-out: LC50 (the source's name)) of the same compound?
Answer: 75.9 µM

Question: And the growth at 100 µM [7]?
Answer: -58%

Question: And the growth at 100 µM [8]?
Answer: -60%

Question: And the growth at 10 µM [9]?
Answer: 59%

Question: What about the growth at 1 µM [10] of the same compound?
Answer: 99%

Question: And the growth at 100 µM [11]?
Answer: 11%

Question: And the LC50 [12]?
Answer: > 100 µM

Question: What about the TGI [12] of the same compound?
Answer: > 100 µM

Question: And the growth at 0.01 µM [13]?
Answer: 91%

Question: What about the growth at 0.01 µM [14] of the same compound?
Answer: 96%

Question: What about the growth at 0.1 µM [15] of the same compound?
Answer: 91%

Question: What about the growth at 0.01 µM [16] of the same compound?
Answer: 94%

Question: And the growth at 0.1 µM [17]?
Answer: 92%

Question: And the growth at 0.01 µM [33]?
Answer: 89%

Question: And the growth at 1 µM [34]?
Answer: 89%

Question: And the growth at 100 µM [35]?
Answer: -56%

Question: And the growth at 10 µM [36]?
Answer: -8%

Question: And the growth at 0.1 µM [18]?
Answer: 88%

Question: `COc1ccc(-c2cc(/C=C/C(=O)c3ccc4c(c3)OCO4)[nH]n2)cc1OC` was tested. Which GI50 [1] did it give?
Answer: 2.63 µM

Question: What about the GI50 [32] of the same compound?
Answer: 1.97 µM

Question: And the GI50 [24]?
Answer: 1.6 µM

Question: What about the GI50 [25] of the same compound?
Answer: 1.16 µM
